The target of one test is T1, Bcl-xL protein (Homo sapiens, UniProt Q07817, N197C).
T1 construct: (2-197)[N197C]; His-His (two His8 stretches joined by a Gly/Ala/Ser/Thr linker)
The experiment in a line: Fluorescence quenching assay (PUMA peptide displacement). It counts as binding. To be noted: 1 nM protein, 400 nM peptide, 2 hours at 23° C.; KI determined from IC50. The source says: Fluorescence quenching assay measures the change in fluorescence intensity of C-terminally Cy5-labeled BCL-xL protein, His-His-(EK)-hs ? (2-197)[N197C] (UniProtKB® primary accession number Q07817-1) having an amino acid sequence (SEQ ID:03): [[…] […] […] […] […]] which is linked in C-terminal region to the amino acid X which corresponds to a cysteine labeled on the sulfur with Sulfo-Cyanine5 from Lumiprobe GmbH catalogue number 13380, upon binding of a C-terminally labeled peptide derived from PUMA (UniProtKB® primary accession number Q9BXH1) having an aminoacid sequence (SEQ ID:04): [[…]] which is linked in C-terminal region to the amino acid X′ where X′ is cysteine labeled on the sulfur with TQ5WS from AAT Bioquest catalogue number 2079.
The addition of a compound which binds competitively to the same site as the peptide will result in an increase in the fluorescence intensity of the protein due to displacement of the fluorescence quencher.
An 11-point serial dilution of each compound was prepared in DMSO the final buffer conditions were 10 mM 4-(2-hydroxyethyl)-1-piperazineethanesulfonic acid [HEPES], 150 mM NaCl, 0.05% Tween 20, pH 7.4 and 5% DMSO. The final protein concentration in the assay was 1 nM with the peptide present at 400 nM. The experiments were incubated for 2 hours at 23° C. before fluorescence intensity was measured on a Biotek SynergyNeo plate reader (Excitation 620 nm, emission 680 nm). […] The KI values were determined from the IC50 values according to Cer et al, Nucleic Acids Res, 2009, Jul. 1: 37(WebServer issue): W441-W445.

The next test relates to H146 cells. Briefly: H146 cell viability, MTT assay. It counts as cell-based. To be noted: Homo sapiens, NCI-H146, 48 h, 48 h exposure. An outline of the steps: (§1)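 Viability read by MTT reduction (OD 540 nm after overnight SDS/HCl lysis) after 48 h compound treatment of cells in RPMI 1640/10% FBS. Triplicates at nine concentrations, 3.16-fold apart; four-parameter curve fitting yields IC50.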

The next test concerns MOLT-4 cells. The experiment in a line: MOLT-4 cell viability, MTT assay. The conditions noted are these: Homo sapiens, MOLT-4, 48 h, 48 h exposure. It counts as cell-based. The procedure, abridged:
as §1

Structures are written as SMILES.

T1 sequence (Q07817 2-197 N197C): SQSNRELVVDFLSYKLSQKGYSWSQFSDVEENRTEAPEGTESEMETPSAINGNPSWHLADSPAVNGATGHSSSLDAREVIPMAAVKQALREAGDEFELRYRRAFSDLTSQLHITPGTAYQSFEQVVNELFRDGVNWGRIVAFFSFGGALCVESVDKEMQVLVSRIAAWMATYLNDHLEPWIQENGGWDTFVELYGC

With `Cc1cc(N(CCCCN2CCC(N)CC2)c2nc(C(=O)O)c(CCCOc3ccc(C#CCN(C)C)cc3F)s2)nnc1Nc1nc2ccccc2s1` [Example 175, 2-[4-(4-Amino-1-piperidyl)butyl-[6-(1,3-benzothiazol-2-ylamino)-5-methyl-pyridazin-3-yl]amino]-5-[3-[4-[3-(dimethylamino)prop-1-ynyl]-2-fluoro-phenoxy]propyl]thiazole-4-carboxylic acid], the Ki at Bcl-xL protein came to 1.1 pM. Moreover, the IC50 in the test with H146 cells was found to be 75 nM; with MOLT-4 cells, 204 nM.
On to `CCN(CC)CCNCCCCN(c1cc(C)c(Nc2nc3ccccc3s2)nn1)c1nc(C(=O)O)c(CCCOc2ccc(C#CCN(C)C)cc2F)s1` [Example 176, 2-[[6-(1,3-Benzothiazol-2-ylamino)-5-methyl-pyridazin-3-yl]-[4-[2-(diethylamino)ethylamino]butyl]amino]-5-[3-[4-[3-(dimethylamino)prop-1-ynyl]-2-fluoro-phenoxy]propyl]thiazole-4-carboxylic acid], for which the Ki at Bcl-xL protein stood at 1.1 pM. Also, the concentration for half-maximal inhibition (IC50) with H146 cells came out at 124 nM; with MOLT-4 cells, 76.2 nM.
The corresponding values for `Cc1cc(N(CCCCCN2CCC(N)CC2)c2nc(C(=O)O)c(CCCOc3ccc(C#CCN(C)C)cc3F)s2)nnc1Nc1nc2ccccc2s1` [Example 177, 2-[5-(4-Amino-1-piperidyl)pentyl-[6-(1,3-benzothiazol-2-ylamino)-5-methyl-pyridazin-3-yl]amino]-5-[3-[4-[3-(dimethylamino)prop-1-ynyl]-2-fluoro-phenoxy]propyl]thiazole-4-carboxylic acid] are 3 pM, 36.3 nM and 225 nM.
As to `CCN(CC)CCNCCCCCN(c1cc(C)c(Nc2nc3ccccc3s2)nn1)c1nc(C(=O)O)c(CCCOc2ccc(C#CCN(C)C)cc2F)s1` [Example 182, 2-[[6-(1,3-Benzothiazol-2-ylamino)-5-methyl-pyridazin-3-yl]-[5-[2-(diethylamino)ethylamino]pentyl]amino]-5-[3-[4-[3-(dimethylamino)prop-1-ynyl]-2-fluoro-phenoxy]propyl]thiazole-4-carboxylic acid], at Bcl-xL protein, the Ki was found to be 7.4 pM. The figures for the half-inhibitory concentration (IC50) with H146 cells and with MOLT-4 cells were 199 nM and 129 nM, respectively.
For `COC(COc1ccc(C#CCN(C)C)cc1F)Cc1sc(N(C)c2cc(C)c(Nc3nc4ccccc4s3)nn2)nc1C(=O)O` (stereo not drawn) [Example 183, 2-({6-[(1,3-Benzothiazol-2-yl)amino]-5-methylpyridazin-3-yl}(methyl)amino)-5-(3-{4-[3-(dimethylamino)prop-1-yn-1-yl]-2-fluorophenoxy}-2-methoxypropyl)-1,3-thiazole-4-carboxylic acid] the same measures were 7.8 pM, 187 nM and 46.5 nM.
`Cc1cc(N(CCCCN2CCNCC2)c2nc(C(=O)O)c(CCCOc3ccc(C#CCN(C)C)cc3F)s2)nnc1Nc1nc2ccccc2s1` [Example 184, 2-[[6-(1,3-Benzothiazol-2-ylamino)-5-methyl-pyridazin-3-yl]-(4-piperazin-1-ylbutyl)amino]-5-[3-[4-[3-(dimethylamino)prop-1-ynyl]-2-fluoro-phenoxy]propyl]thiazole-4-carboxylic acid]: the Ki at Bcl-xL protein is 3.6 pM. For the same molecule, the figures for the IC50 in the test with H146 cells and with MOLT-4 cells were 107 nM and 184 nM, respectively.
For `CNC/C=C/c1ccc(OCCCc2sc(N(CCCCO)c3cc(C)c(Nc4nc5ccccc5s4)nn3)nc2C(=O)O)c(F)c1` [Example 185, 2-[[6-(1,3-Benzothiazol-2-ylamino)-5-methyl-pyridazin-3-yl]-(4-hydroxybutyl)amino]-5-[3-[2-fluoro-4-[(E)-3-(methylamino)prop-1-enyl]phenoxy]propyl]thiazole-4-carboxylic acid] the same measures were 1.2 pM, 7 nM and 16.8 nM.
Turning to `CNCCCc1ccc(OCCCc2sc(N(CCCCO)c3cc(C)c(Nc4nc5ccccc5s4)nn3)nc2C(=O)O)c(F)c1` [Example 186, 2-[[6-(1,3-Benzothiazol-2-ylamino)-5-methyl-pyridazin-3-yl]-(4-hydroxybutyl)amino]-5-[3-[2-fluoro-4-[3-(methylamino)propyl]phenoxy]propyl]thiazole-4-carboxylic acid], the Ki on Bcl-xL protein worked out at 1 pM. The IC50 came to 16.9 nM with H146 cells and 85.3 nM with MOLT-4 cells.
For `Cc1cc(N(CCCCCNCCN2CCCCC2)c2nc(C(=O)O)c(CCCOc3ccc(C#CCN(C)C)cc3F)s2)nnc1Nc1nc2ccccc2s1` [Example 187, 2-[[6-(1,3-Benzothiazol-2-ylamino)-5-methyl-pyridazin-3-yl]-[5-[2-(1-piperidyl)ethylamino]pentyl]amino]-5-[3-[4-[3-(dimethylamino)prop-1-ynyl]-2-fluoro-phenoxy]propyl]thiazole-4-carboxylic acid] the same measures were 2.5 pM, 23400 nM and 103 nM.
The corresponding values for `CNCCCCN(c1cc(C)c(Nc2nc3ccccc3s2)nn1)c1nc(C(=O)O)c(CCCOc2ccc(C#CCN(C)C)cc2F)s1` [Example 188, 2-[[6-(1,3-Benzothiazol-2-ylamino)-5-methyl-pyridazin-3-yl]-[4-(methylamino)butyl]amino]-5-[3-[4-[3-(dimethylamino)prop-1-ynyl]-2-fluoro-phenoxy]propyl]thiazole-4-carboxylic acid] are 1.8 pM, 5.44 nM and 3410 nM.
The corresponding values for `Cc1cc(N(CCCCCN2CCNCC2)c2nc(C(=O)O)c(CCCOc3ccc(C#CCN(C)C)cc3F)s2)nnc1Nc1nc2ccccc2s1` [Example 189, 2-[[6-(1,3-Benzothiazol-2-ylamino)-5-methyl-pyridazin-3-yl]-(5-piperazin-1-ylpentyl)amino]-5-[3-[4-[3-(dimethylamino)prop-1-ynyl]-2-fluoro-phenoxy]propyl]thiazole-4-carboxylic acid] are 7.4 pM, 94.8 nM and 171 nM.
Turning to `CNCCN(C)CCCCCN(c1cc(C)c(Nc2nc3ccccc3s2)nn1)c1nc(C(=O)O)c(CCCOc2ccc(C#CCN(C)C)cc2F)s1` [Example 190, 2-[[6-(1,3-Benzothiazol-2-ylamino)-5-methyl-pyridazin-3-yl]-[5-[methyl-[2-(methylamino)ethyl]amino]pentyl]amino]-5-[3-[4-[3-(dimethylamino)prop-1-ynyl]-2-fluoro-phenoxy]propyl]thiazole-4-carboxylic acid], the inhibition constant (Ki) on Bcl-xL protein stood at 3.2 pM. For the same molecule, the IC50 in the test with H146 cells came to 78.3 nM; in the test on MOLT-4 cells, 54.9 nM.
For `Cc1cc(N(CCCCCN)c2nc(C(=O)O)c(CCCOc3ccc(C#CCN(C)C)cc3F)s2)nnc1Nc1nc2ccccc2s1` [Example 191, 2-[5-Aminopentyl-[6-(1,3-benzothiazol-2-ylamino)-5-methyl-pyridazin-3-yl]amino]-5-[3-[4-[3-(dimethylamino)prop-1-ynyl]-2-fluoro-phenoxy]propyl]thiazole-4-carboxylic acid] the same measures were 2.8 pM, 83.8 nM and 2200 nM.
For `Cc1cc(N(CCCCN)c2nc(C(=O)O)c(CCCOc3ccc(C#CCN(C)C)cc3F)s2)nnc1Nc1nc2ccccc2s1` [Example 192, 2-[4-Aminobutyl-[6-(1,3-benzothiazol-2-ylamino)-5-methyl-pyridazin-3-yl]amino]-5-[3-[4-[3-(dimethylamino)prop-1-ynyl]-2-fluoro-phenoxy]propyl]thiazole-4-carboxylic acid] the same measures were 2.9 pM, 11.9 nM and 96.4 nM.
For `CNCC#Cc1ccc(OCCCc2sc(N(CCCC(O)CN(C)C)c3cc(C)c(Nc4nc5ccccc5s4)nn3)nc2C(=O)O)c(F)c1` (stereo not drawn) [Example 193, 2-[[6-(1,3-Benzothiazol-2-ylamino)-5-methyl-pyridazin-3-yl]-[5-(dimethylamino)-4-hydroxy-pentyl]amino]-5-[3-[2-fluoro-4-[3-(methylamino)prop-1-ynyl]phenoxy]propyl]thiazole-4-carboxylic acid] the same measures were 1.3 pM, 65 nM and 92.5 nM.
In the case of `CNCCCCCN(c1cc(C)c(Nc2nc3ccccc3s2)nn1)c1nc(C(=O)O)c(CCCOc2ccc(C#CCN(C)C)cc2F)s1` [Example 194, 2-[[6-(1,3-Benzothiazol-2-ylamino)-5-methyl-pyridazin-3-yl]-[5-(methylamino)pentyl]amino]-5-[3-[4-[3-(dimethylamino)prop-1-ynyl]-2-fluoro-phenoxy]propyl]thiazole-4-carboxylic acid], the Ki at Bcl-xL protein was determined as 3.2 pM. For the same molecule, the IC50 in the test with H146 cells was 27 nM; with MOLT-4 cells it was 129 nM.

The record behind these values is patent US12649733B2, “3,6-diamino-pyridazin-3-yl derivatives, pharmaceutical compositions containing them and their uses as pro-apoptotic agents” (LES LABORATOIRES SERVIER, priority 2019, dated 2026).
